Data: US12060330B2, “Therapeutic indazoles” (priority 2017, dated 2024)
Converted amounts (≈) assume the structure as drawn.

Tests used:
M. tuberculosis [1] = experiment: microbe, parasite or virus in culture; type: cell-based; conditions: for whole-cell activity (in words): SAR relative to DG167; for increase in potency over DG167: relative to DG167
M. tuberculosis [2] = conditions: cited from earlier work
[3] = Mouse liver microsome (MLM) stability
M. tuberculosis [4] = experiment: Killing studies using CFU measurements; type: cell-based
M. tuberculosis H37Rv = experiment: RNAseq transcriptional profiling; type: cell-based; conditions: single drug, 10× MIC, 4 h
M. tuberculosis [5] = experiment: Lung CFU in infected mice (FIG. 10, PMID: 25421483); type: in vivo; conditions: compared to INH and vehicle only
KasA = KasA (Mycobacterium tuberculosis, UniProt P9WQD9); experiment: Microscale thermophoresis (MST) binding assay; parameters: species or system M. tuberculosis; conditions: for EC50: read-out: EC50 (KasA interaction)
Sequence of KasA (P9WQD9 whole entry): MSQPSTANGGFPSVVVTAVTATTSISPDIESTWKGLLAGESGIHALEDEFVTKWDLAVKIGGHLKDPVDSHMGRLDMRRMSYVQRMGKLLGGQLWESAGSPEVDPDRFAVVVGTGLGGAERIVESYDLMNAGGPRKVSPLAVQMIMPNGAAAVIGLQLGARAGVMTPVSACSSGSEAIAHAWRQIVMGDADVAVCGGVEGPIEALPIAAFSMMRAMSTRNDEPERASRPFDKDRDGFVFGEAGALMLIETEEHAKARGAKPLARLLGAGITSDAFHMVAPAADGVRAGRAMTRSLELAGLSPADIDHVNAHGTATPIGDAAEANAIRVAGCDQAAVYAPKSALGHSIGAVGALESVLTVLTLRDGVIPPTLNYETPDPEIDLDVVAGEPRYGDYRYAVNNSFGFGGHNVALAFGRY

[6] = tested on: mycolic acid biosynthesis; type: cell-based, M. tuberculosis
CYP2C19 = CYP2C19 (Homo sapiens, UniProt P33261); experiment: Cytochrome P450 (CYP) inhibition; type: in vitro ADME
Sequence of CYP2C19 (P33261 whole entry, species assumed): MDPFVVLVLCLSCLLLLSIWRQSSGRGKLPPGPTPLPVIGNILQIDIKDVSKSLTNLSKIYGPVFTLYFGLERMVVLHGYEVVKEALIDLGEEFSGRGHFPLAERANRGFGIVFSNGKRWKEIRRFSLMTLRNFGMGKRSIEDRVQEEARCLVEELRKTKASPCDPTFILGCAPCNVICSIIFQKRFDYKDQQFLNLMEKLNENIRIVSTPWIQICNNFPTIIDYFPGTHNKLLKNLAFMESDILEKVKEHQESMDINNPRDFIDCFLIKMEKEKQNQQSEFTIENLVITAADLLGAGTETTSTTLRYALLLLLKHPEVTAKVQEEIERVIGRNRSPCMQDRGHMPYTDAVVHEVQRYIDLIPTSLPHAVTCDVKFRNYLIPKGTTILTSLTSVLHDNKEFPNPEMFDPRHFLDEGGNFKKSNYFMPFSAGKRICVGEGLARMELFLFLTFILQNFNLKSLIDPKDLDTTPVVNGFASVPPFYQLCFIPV

Kinetic solubility = conditions: pH 7.4 phosphate-buffered saline (PBS)
M. avium = experiment: MIC against nontuberculous mycobacteria
Caco-2 permeability = conditions: human
[7] = Mouse pharmacokinetic studies (plasma, LC-MS/MS); type: in vivo; conditions: mice
Method: DG1167 levels in plasma were measured by LC-MS/MS in electrospray positive-ionization mode (ESI+) on a Sciex Qtrap 4000 triple-quadrupole mass combined with an Agilent 1260 HPLC using Analyst software. […] Multiple-reaction monitoring (MRM) of parent/daughter transitions in electrospray positive-ionization mode (ESI+) was used to quantify DG167. […] Extracts were vortexed for 5 minutes and centrifuged at 4000 RPM for 5 minutes. The supernatants were analyzed by LC-MS. Verapamil IS was sourced from Sigma-Aldrich.

M. fortuitum = experiment: MIC against nontuberculous mycobacteria
[8] = Dose escalation and drug tolerability in mice; type: in vivo
Method: All animal experiments were conducted in compliance with and approved by the Institutional Animal Care and Use Committee of the New Jersey Medical School, Rutgers University.
The mice were weighed and observed daily. Their behavior, drinking and feeding patterns, and feces were monitored and recorded. Upon necropsy, liver, gall bladder, kidney and spleen pathology were observed as well.

M. abscessus = experiment: MIC against nontuberculous mycobacteria
CYP enzymes = experiment: Cytochrome P450 (CYP) inhibition; conditions: CYP enzymes except CYP2C19
M. smegmatis = experiment: MIC against nontuberculous mycobacteria
M. marinum = experiment: MIC against nontuberculous mycobacteria

## CCCCNC(=S)Nc1ccc2cnn(C)c2c1 [Example 33, 1-Butyl-3-(1-methyl-1H-indazol-6-yl)thiourea]
M. tuberculosis [1]; Mycobacterium tuberculosis, whole-cell
  MIC: 3.1 µM (≈ 0.813 µg/mL)
M. tuberculosis [1]
  whole-cell activity (in words): loss of activity

## C=C/C(C)=C/[C@@]1(C)SC(=O)C(C)=C1O [thiolactomycin]
M. tuberculosis [2]
  whole-cell activity in M. tuberculosis: 142 µM

## [2H]C([2H])([2H])n1ncc2ccc(NS(=O)(=O)CCCC)cc21 [Example 29, N-(1-(methyl-d3)-1H-indazol-6-yl)butane-1-sulfonamide]
[3]; mouse liver microsomes
  MLM t1/2: 16.8 min

## [2H]C([2H])([2H])n1ncc2ccc(NS(=O)(=O)CCCCC)cc21 [Example 30, N-(1-(methyl-d3)-1H-indazol-6-yl)pentane-1-sulfonamide]
M. tuberculosis [1]
  whole-cell activity (in words): increased the activity over the parent by twofold
  increase in potency over DG167: 2 fold

## CC12C[C@@]34C=CC(=O)[C@@](C)(CCC(=O)Nc5c(O)ccc(C(=O)O)c5O)C3[C@H](CC1C4)O2 (stereo partly drawn) [platensimycin]
M. tuberculosis [2]
  whole-cell activity in M. tuberculosis: 27 µM

## NNC(=O)c1ccncc1 [INH, isoniazid, reference compound]
M. tuberculosis [4]; 10× MIC of each drug
  killing pattern (in words): rapid reduction of viable CFU followed by rapid re-growth
M. tuberculosis H37Rv
  gene expression change (in words): strongly induced expression of kasA, kasB, acpM genes, the iniBAC operon

## Cc1n[nH]c2ccc(NS(=O)(=O)CCCCF)cc12 [Example 43, 4-Fluoro-N-(3-methyl-1H-indazol-5-yl)butane-1-sulfonamide]
M. tuberculosis [5]
  M. tuberculosis colony-forming units in the lungs: reduction of M. tuberculosis colony-forming units in the lungs

## CCCCS(=O)(=O)Nc1ccc2cn[nH]c2c1 [Example 1, N-(1H-indazol-6-yl)butane-1-sulfonamide]
KasA
  EC50: 1740 ± 221 nM
[6]
  inhibition of mycolic acid biosynthesis: did not show any inhibition

## CCCCS(=O)(=O)N(C)c1ccc2cnn(C)c2c1 [Example 32, N-methyl-N-(1-methyl-1H-indazol-6-yl)butane-1-sulfonamide]
M. tuberculosis [1]
  whole-cell activity (in words): loss of activity

## CCCCS(=O)(=O)Nc1ccc2[nH]nc(C)c2c1 [Example 41, N-(3-methyl-1H-indazol-5-yl)butane-1-sulfonamide]
KasA
  Kd: 46.5 ± 18.7 nM
M. tuberculosis [1]
  improvement over DG167 in MIC / whole-cell activity: 2 ×

## CCCCCCS(=O)(=O)Nc1ccc2cnn(C)c2c1 [Example 12, N-(1-methyl-1H-Indazol-6-yl)hexane-1-sulfonamide]
M. tuberculosis [1]
  whole-cell activity (in words): inactive

## CCCCS(=O)(=O)Nc1ccc2cnn(C)c2c1 [DG167, N-(1-methyl-1H-indazol-6-yl)butane-1-sulfonamide]
CYP2C19
  IC50: 12000 nM
M. tuberculosis [4]; 10× or 20× MIC, over seven days
  reduction of viable colony-forming units (CFU): 2 log 10
Kinetic solubility
  kinetic solubility: 324 µM (≈ 86.6 µg/mL)
KasA
  EC50: 131 ± 18.2 nM
M. avium
  MIC: > 100 µM
Caco-2 permeability
  Papp A→B: 71.8 ×10⁻⁶ cm/s
  Papp B→A: 45.6 ×10⁻⁶ cm/s
[7]; IV 5 mg/kg
  half-life (t1/2): 19.8 min
[7]; IV 5 mg/kg, 5% DMA/40% PEG300/55% D5W
  AUC [0-t]: 1751.25 ng·h/mL
[7]; PO 25 mg/kg, 0.5% CMC/0.5% Tween 80, plasma
  AUC [0-t]: 8083.96 ng·h/mL
[7]; single oral dose 25 mg/kg
  time plasma levels maintained above the MIC: over 4 hours
[7]; single oral dose 25 mg/kg, plasma
  AUC [0-t]: 8083.96 h*ng/m
M. fortuitum
  MIC: > 100 µM
[6]
  accumulation of FAS-I products: caused accumulation of C16-C26 short-chain fatty-acids
[3]; in the absence of NADPH
  MLM t1/2: > 300 min
[3]; mouse liver microsomes
  MLM t1/2: 10.1 min
[8]; 50 and 100 mg/kg, monitored 8 hours
  tolerability, dose escalation: well tolerated
[8]; 5 d, DG167 50 or 100 mg/kg, or DG167 100 mg/kg with INH 25 mg/kg
  dose tolerability for 5 d: did not show any behavioral changes or weight loss
[8]; higher doses (250, 500 mg/kg)
  tolerability, dose escalation: heavy breathing, hunched posture and decreased activity
M. tuberculosis H37Rv
  gene expression change (in words): strongly induced expression of kasA, kasB, acpM genes, the iniBAC operon
M. abscessus
  MIC: > 100 µM
CYP enzymes
  CYP inhibition (in words): did not significantly inhibit
M. smegmatis
  MIC: > 100 µM
M. marinum
  MIC: > 100 µM

## CCCCCS(=O)(=O)Nc1ccc2cnn(C)c2c1 [Example 11, N-(1-methyl-1H-indazol-6-yl)pentane-1-sulfonamide]
M. tuberculosis [1]
  whole-cell activity (in words): increased the activity over the parent by twofold
  increase in potency over DG167: 2 fold
